Where “and” joins values, the source holds several entries; their conditions need not be identical. Identical values can stand only once. Like-named read-outs stand apart in the source and are kept apart here.
What was measured:
in vitro = details: human
Calu-3 cells = details: rep1-rep3
SARS-CoV-2 = format: cell-based; details: UK-371804 1.1 μM; Supplementary Fig. 7c
TMPRSS2 [1] = target: T1, TMPRSS2 (Homo sapiens, UniProt O15393); assay: biochemical; format: biochemical
Target sequence in this assay (O15393 256-492): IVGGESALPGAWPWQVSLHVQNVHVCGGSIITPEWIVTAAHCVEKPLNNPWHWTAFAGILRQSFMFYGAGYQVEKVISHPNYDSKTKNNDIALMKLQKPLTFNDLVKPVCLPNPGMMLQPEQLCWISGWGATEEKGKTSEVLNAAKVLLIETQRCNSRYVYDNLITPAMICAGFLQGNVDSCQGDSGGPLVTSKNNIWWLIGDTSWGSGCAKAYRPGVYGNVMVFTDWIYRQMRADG
Target sequence in this assay (O15393 other isoform, or with tags, fused parts or gaps): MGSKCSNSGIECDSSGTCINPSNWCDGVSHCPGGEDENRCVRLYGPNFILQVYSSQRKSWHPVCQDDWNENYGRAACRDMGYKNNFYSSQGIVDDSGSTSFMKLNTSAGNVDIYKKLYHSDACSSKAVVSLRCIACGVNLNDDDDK

TMPRSS2 [2] = target: T1, TMPRSS2
Target sequence in this assay (O15393 with tags, fused parts or gaps): as the sequence (O15393 other isoform, or with tags, fused parts or gaps) above
Target sequence in this assay (O15393 256-492): as the sequence (O15393 256-492) above

Q: Which CC50 (in vitro) does the source give for CC(C)(NS(=O)(=O)c1ccc2c(Cl)cnc(N=C(N)N)c2c1)C(=O)O [UK-371804] here?
A: The CC50 was 172 µM.

Q: What about the Cytotoxicity (Calu-3 cells; 0.0128 μM) of the same compound?
A: Its Cytotoxicity is 4.90% and 4.97% and 4.91%.

Q: What about the Cytotoxicity (Calu-3 cells; 0.064 μM) of the same compound?
A: The Cytotoxicity was 5.03% and 5.08% and 5.05%.

Q: What about the Cytotoxicity (Calu-3 cells; 8 μM) of the same compound?
A: The Cytotoxicity was 8.30% and 8.32% and 8.28%.

Q: And the Cytotoxicity (Calu-3 cells; 40 μM)?
A: The Cytotoxicity was 11.32% and 11.36% and 11.39%.

Q: And the Cytotoxicity (Calu-3 cells; 200 μM)?
A: Its Cytotoxicity is 60.70% and 60.73% and 60.71%.

Q: What about the Cytotoxicity (Calu-3 cells; 1000 μM) of the same compound?
A: Its Cytotoxicity is 98.32% and 98.37% and 98.33%.

Q: What about the Virus titer (SARS-CoV-2) of the same compound?
A: The Virus titer was 31700 TCID50/ml and 20000 TCID50/ml.

Q: What about the “Inhibition: TMPRSS2” value (TMPRSS2 [1]; 0.038147 nM, rep1-rep4, 3.8147e-05 µM) of the same compound?
A: The value was 0.08% and 2.54% and 1.84% and 2.81%.

Q: What about the “Inhibition: TMPRSS2” value (TMPRSS2 [1]; 0.076294 nM, rep1-rep4, 7.6294e-05 µM) of the same compound?
A: Its value is 0.83% and 3.15% and 2.99% and 4.15%.

Q: What about the “Inhibition: TMPRSS2” value (TMPRSS2 [1]; 0.152588 nM, rep1-rep4, 0.000152588 µM) of the same compound?
A: Its value is 1.86% and 5.33% and 3.17% and 6.82%.

Q: And the inhibition at 0.000305176 µM (TMPRSS2 [1]; 0.305176 nM, rep1-rep4)?
A: Its inhibition at 0.000305176 µM is 5.7%.

Q: And the “Inhibition: TMPRSS2” value (TMPRSS2 [1]; 0.305176 nM, rep1-rep4, 0.000305176 µM)?
A: Its value is 8.86% and 5.77% and 9.17%.

Q: What about the IC50 (TMPRSS2 [1]; 0.5 nM TMPRSS2, 10 μM substrate, mean ± SD, four replicates) of the same compound?
A: The IC50 was 0.00459 µM.

Q: What about the “Inhibition: TMPRSS2” value (TMPRSS2 [1]; 0.610352 nM, rep1-rep4, 0.000610352 µM) of the same compound?
A: The value was 13.28% and 12.75% and 14.23%.

Q: And the inhibition at 0.000610352 µM (TMPRSS2 [1]; 0.610352 nM, rep1-rep4, read-out: Inhibition: TMPRSS2)?
A: The inhibition at 0.000610352 µM was 10.6%.

Q: And the “Inhibition: TMPRSS2” value (TMPRSS2 [1]; 1.2207 nM, rep1-rep4, 0.0012207 µM)?
A: Its value is 21.81% and 21.57% and 22.98%.

Q: And the inhibition at 0.0012207 µM (TMPRSS2 [1]; 1.2207 nM, rep1-rep4, read-out: Inhibition: TMPRSS2)?
A: Its inhibition at 0.0012207 µM is 19.4%.

Q: What about the “Inhibition: TMPRSS2” value (TMPRSS2 [1]; 2.44141 nM, rep1-rep4, 0.00244141 µM) of the same compound?
A: Its value is 37.42% and 35.32% and 36.99%.

Q: And the inhibition at 0.00244141 µM (TMPRSS2 [1]; 2.44141 nM, rep1-rep4, read-out: Inhibition: TMPRSS2)?
A: Its inhibition at 0.00244141 µM is 34.9%.

Q: What about the “Inhibition: TMPRSS2” value (TMPRSS2 [1]; 4.88281 nM, rep1-rep4, 0.00488281 µM) of the same compound?
A: Its value is 52.70% and 52.38% and 53.49%.

Q: And the inhibition at 0.00488281 µM (TMPRSS2 [1]; 4.88281 nM, rep1-rep4, read-out: Inhibition: TMPRSS2)?
A: Its inhibition at 0.00488281 µM is 50.8%.

Q: What about the “Inhibition: TMPRSS2” value (TMPRSS2 [1]; 9.76562 nM, rep1-rep4, 0.00976562 µM) of the same compound?
A: Its value is 69.20% and 69.17%.

Q: What about the inhibition at 0.00976562 µM (TMPRSS2 [1]; 9.76562 nM, rep1-rep4, read-out: Inhibition: TMPRSS2) of the same compound?
A: Its inhibition at 0.00976562 µM is 68.8%.

Q: What about the “Inhibition: TMPRSS2” value (TMPRSS2 [1]; 19.5312 nM, rep1-rep4, 0.0195312 µM) of the same compound?
A: Its value is 82.58% and 82.53% and 82.55%.

Q: What about the inhibition at 0.0195312 µM (TMPRSS2 [1]; 19.5312 nM, rep1-rep4, read-out: Inhibition: TMPRSS2) of the same compound?
A: The inhibition at 0.0195312 µM was 82.4%.

Q: What about the “Inhibition: TMPRSS2” value (TMPRSS2 [1]; 39.0625 nM, rep1-rep4, 0.0390625 µM) of the same compound?
A: Its value is 90.09% and 90.26% and 90.84%.

Q: What about the inhibition at 0.0390625 µM (TMPRSS2 [1]; 39.0625 nM, rep1-rep4, read-out: Inhibition: TMPRSS2) of the same compound?
A: Its inhibition at 0.0390625 µM is 90.6%.

Q: What about the “Inhibition: TMPRSS2” value (TMPRSS2 [1]; 78.125 nM, rep1-rep4, 0.078125 µM) of the same compound?
A: The value was 94.96% and 95.13% and 95.23%.

Q: What about the inhibition at 0.078125 µM (TMPRSS2 [1]; 78.125 nM, rep1-rep4, read-out: Inhibition: TMPRSS2) of the same compound?
A: Its inhibition at 0.078125 µM is 95.3%.

Q: What about the “Inhibition: TMPRSS2” value (TMPRSS2 [1]; 156.25 nM, rep1-rep4, 0.15625 µM) of the same compound?
A: The value was 97.46% and 97.80% and 98.15%.

Q: What about the inhibition at 0.15625 µM (TMPRSS2 [1]; 156.25 nM, rep1-rep4, read-out: Inhibition: TMPRSS2) of the same compound?
A: Its inhibition at 0.15625 µM is 97.9%.

Q: And the “Inhibition: TMPRSS2” value (TMPRSS2 [1]; 312.5 nM, rep1-rep4, 0.3125 µM)?
A: The value was 98.77% and 99.07% and 99.48%.

Q: And the inhibition at 0.3125 µM (TMPRSS2 [1]; 312.5 nM, rep1-rep4, read-out: Inhibition: TMPRSS2)?
A: Its inhibition at 0.3125 µM is 99.1%.

Q: And the “Inhibition: TMPRSS2” value (TMPRSS2 [1]; 625 nM, rep1-rep4, 0.625 µM)?
A: The value was 100.11% and 99.99% and 100.09%.

Q: What about the inhibition at 0.625 µM (TMPRSS2 [1]; 625 nM, rep1-rep4, read-out: Inhibition: TMPRSS2) of the same compound?
A: The inhibition at 0.625 µM was 100%.

Q: And the “Inhibition: TMPRSS2” value (TMPRSS2 [1]; 1250 nM, rep1-rep4, 1.25 µM)?
A: The value was 100.27% and 100.14% and 100.40%.

Q: What about the inhibition at 1.25 µM (TMPRSS2 [1]; 1250 nM, rep1-rep4, read-out: Inhibition: TMPRSS2) of the same compound?
A: The inhibition at 1.25 µM was 101%.

Q: What about the “Inhibition: TMPRSS2” value (TMPRSS2 [1]; 2500 nM, rep1-rep4, 2.5 µM) of the same compound?
A: Its value is 100.86% and 100.80% and 100.93%.

Q: What about the inhibition at 2.5 µM (TMPRSS2 [1]; 2500 nM, rep1-rep4, read-out: Inhibition: TMPRSS2) of the same compound?
A: Its inhibition at 2.5 µM is 101%.

Q: And the “Inhibition: TMPRSS2” value (TMPRSS2 [1]; 5000 nM, rep1-rep4, 5 µM)?
A: Its value is 102.04% and 102.07% and 102.13%.

Q: What about the inhibition at 5 µM (TMPRSS2 [1]; 5000 nM, rep1-rep4, read-out: Inhibition: TMPRSS2) of the same compound?
A: The inhibition at 5 µM was 101%.

Q: For O=C(O)CN(CCN(CC(=O)O)CC(=O)O)CC(=O)O [EDTA], which “Tm of TMPRSS2” value (TMPRSS2 [2]) is on record?
A: Its value is 51.7 °C and 51.6 °C.
